The text below walks through data of patent US10913736B2 (UNIVERSITY OF WASHINGTON, priority 2014, dated 2021).

Values joined by “and” are separate entries in the source; they are usually repeats but may differ in a detail not shown here. Equal values may be shown once. Read-outs that look alike come from different tables or passages of the source.

The target of assay [1] is MetRS (T. brucei) (Trypanosoma brucei brucei, UniProt Q38C91). Briefly: MetRS (T. brucei) ATP depletion assay using Kinase-Glo. Type of assay: biochemical.
In assay [2] the test system is T. brucei. As to the kind of experiment: Growth inhibition assay of T. brucei cell cultures (Alamar Blue, 48 h). Type of assay: cell-based.
Assay [3] addresses MetRS (S. aureus) (Staphylococcus aureus, UniProt Q5HII6). Briefly: biochemical. The following applies: ATP depletion, Kinase-Glo; read-out: H) MetRS (S. aureus) ATP depletion assay using Kinase-Glo with modified cpd dilution method, IC50. In general terms: In Kinase-Glo more light means more ATP remaining.
Where [4] appears, read: Trypanosoma brucei; read-out: B) T. brucei EC50.

Sequence of MetRS (T. brucei) (Q38C91 entry or part of it): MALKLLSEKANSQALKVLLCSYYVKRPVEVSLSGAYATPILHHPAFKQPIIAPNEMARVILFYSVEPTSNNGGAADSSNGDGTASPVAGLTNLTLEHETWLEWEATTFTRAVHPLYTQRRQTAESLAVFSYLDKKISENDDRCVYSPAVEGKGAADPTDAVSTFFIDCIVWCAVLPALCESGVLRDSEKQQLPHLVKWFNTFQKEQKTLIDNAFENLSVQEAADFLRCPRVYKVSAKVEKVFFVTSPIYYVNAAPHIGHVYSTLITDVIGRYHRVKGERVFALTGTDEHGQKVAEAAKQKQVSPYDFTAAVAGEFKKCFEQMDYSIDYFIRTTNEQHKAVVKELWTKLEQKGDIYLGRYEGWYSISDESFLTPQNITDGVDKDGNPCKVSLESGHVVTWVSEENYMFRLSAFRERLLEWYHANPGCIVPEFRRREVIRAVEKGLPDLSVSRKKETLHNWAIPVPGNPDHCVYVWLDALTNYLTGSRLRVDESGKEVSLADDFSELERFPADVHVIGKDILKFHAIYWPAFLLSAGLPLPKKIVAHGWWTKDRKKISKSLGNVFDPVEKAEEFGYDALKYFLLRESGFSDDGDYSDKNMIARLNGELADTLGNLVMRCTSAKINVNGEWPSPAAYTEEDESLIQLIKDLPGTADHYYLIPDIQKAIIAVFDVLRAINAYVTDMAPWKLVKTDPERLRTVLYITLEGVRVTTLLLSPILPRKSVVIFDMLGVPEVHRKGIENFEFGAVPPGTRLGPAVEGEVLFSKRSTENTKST
Sequence of MetRS (S. aureus) (Q5HII6 whole entry): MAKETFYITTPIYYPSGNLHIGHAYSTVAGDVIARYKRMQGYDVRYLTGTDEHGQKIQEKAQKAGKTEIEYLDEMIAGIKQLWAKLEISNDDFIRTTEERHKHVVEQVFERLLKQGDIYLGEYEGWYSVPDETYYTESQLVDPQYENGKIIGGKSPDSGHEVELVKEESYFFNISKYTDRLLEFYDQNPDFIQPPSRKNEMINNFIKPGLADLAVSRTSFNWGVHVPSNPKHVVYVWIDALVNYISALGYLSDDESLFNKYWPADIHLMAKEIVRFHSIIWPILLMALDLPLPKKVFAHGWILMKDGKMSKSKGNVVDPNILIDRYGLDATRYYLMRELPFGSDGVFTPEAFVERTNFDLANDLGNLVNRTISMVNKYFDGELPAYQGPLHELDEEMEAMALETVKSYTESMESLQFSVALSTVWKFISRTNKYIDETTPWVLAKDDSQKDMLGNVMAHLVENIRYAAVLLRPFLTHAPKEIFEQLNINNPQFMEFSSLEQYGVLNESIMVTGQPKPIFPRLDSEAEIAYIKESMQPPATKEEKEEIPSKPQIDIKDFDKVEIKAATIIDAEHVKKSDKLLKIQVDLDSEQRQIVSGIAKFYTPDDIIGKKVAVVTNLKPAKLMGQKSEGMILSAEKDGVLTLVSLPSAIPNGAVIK

Usually IC50 stands for the concentration that inhibits the measured activity by half. As usually defined, the EC50 is the concentration that produces a half-maximal response. `O=C(CCOc1ccc(Cl)cc1Cl)NCc1nc2ccc(F)nc2[nH]1` [Compound 1705, 3-(2,4-dichlorophenoxy)-N-({5-fluoro-3H-imidazo[4,5-b]pyridin-2-yl}methyl)propanamide]: the half-inhibitory concentration (IC50) in assay [1] was 100 nM; in assay [3], 1690 nM. For the same molecule, in assay [2] (setting [4]), the EC50 turned out to be 8840 nM.
Consider `O=C(NCc1nc2cccnc2[nH]1)OCCc1ccc(Cl)cc1Cl` [Compound 1706, 2-(2,4-dichlorophenyl)ethyl N-{3H-imidazo[4,5-b]pyridin-2-ylmethyl}carbamate], for which the half-maximal inhibitory concentration (IC50) is 38 nM in assay [1] and 83 nM in assay [3]. Also, in assay [2] (setting [4]), the concentration giving a half-maximal response (EC50) worked out at 2760 nM.
In the case of `CC(=O)N(CCCc1nc2ccc(Cl)nc2[nH]1)Cc1cc(Cl)cc(Cl)c1` [Compound 1895, N-(3-(5-chloro-1H-imidazo[4,5-b]pyridin-2-yl)propyl)-N-(3,5-dichlorobenzyl)acetamide], the IC50 was 17 nM in assay [1] and 445 nM in assay [3]. The EC50 in assay [2] (setting [4]) turned out to be 569 nM.
In assay [1], `Clc1cc(Cl)c(OC2CC2)c(CN[C@H]2CCCN(c3nc4nc(Cl)ccc4[nH]3)C2)c1` [Compound 1930, (S)-1-(5-chloro-1H-imidazo[4,5-b]pyridin-2-yl)-N-(3,5-dichloro-2-cyclopropoxybenzyl)piperidin-3-amine] yielded an IC50 of 389 nM. In assay [2] (setting [4]), the EC50 came out at 3120 nM.
In assay [1], `CC(C)Oc1c(Cl)cc(Cl)cc1CN[C@H]1CCCN(c2nc3nc(Cl)ccc3[nH]2)C1` [Compound 1931, (S)-1-(5-chloro-1H-imidazo[4,5-b]pyridin-2-yl)-N-(3,5-dichloro-2-isopropoxybenzyl)piperidin-3-amine] came in with a concentration for half-maximal inhibition (IC50) of 305 nM. Besides, the EC50 in assay [2] (setting [4]) was 1700 nM.
The molecule `CC(=O)N(Cc1cc(Cl)cc(Cl)c1)[C@@H]1CCC[C@H](c2nc3nc(F)ccc3[nH]2)C1` [Compound 1932, N-(3,5-dichlorobenzyl)-N-((1R,3S)-3-(5-fluoro-1H-imidazo[4,5-b]pyridin-2-yl)cyclohexyl)acetamide] had a 50% inhibitory concentration (IC50) in assay [1] of 518 nM. The concentration for a half-maximal effect (EC50) in assay [2] (setting [4]) was found to be 8910 nM.
`O=C1N[C@@H](Cc2ccc(Cl)cc2Cl)C(O)N1Cc1nc2ccccc2[nH]1` (stereo partly drawn) [Compound 1934, (4S)-1-((1H-benzo[d]imidazol-2-yl)methyl)-4-(2,4-dichlorobenzyl)-5-hydroxyimidazolidin-2-one] returned a 50% inhibitory concentration (IC50) in assay [1] of 118 nM. The EC50 in assay [2] (setting [4]) worked out at 2000 nM.
Molecule `O=C(NCc1nc2ccccc2[nH]1)N[C@H](CO)Cc1ccc(Cl)cc1Cl` [Compound 1935, 1-((1H-benzo[d]imidazol-2-yl)methyl)-3-((S)-3-(2,4-dichlorophenyl)-1-hydroxypropan-2-yl)urea] came in with a half-inhibitory concentration (IC50) in assay [1] greater than 10000 nM. In addition, the EC50 in assay [2] (setting [4]) was found to be 9360 nM.
As for `OC1NC(Cc2ccc(Cl)cc2Cl)=CN1Cc1nc2ccccc2[nH]1` (stereo not shown) [Compound 1936, 3-((1H-benzo[d]imidazol-2-yl)methyl)-5-(2,4-dichlorobenzyl)-2,3-dihydro-1H-imidazol-2-ol], in assay [1], the IC50 stood at 65 nM. Moreover, the EC50 in assay [2] (setting [4]) was found to be 1830 nM.
As for `CCOc1c(Br)cc(Cl)cc1CN[C@H]1CCCN(c2nc3nc(Cl)ccc3[nH]2)C1` [Compound 1937, (S)—N-(3-bromo-5-chloro-2-ethoxybenzyl)-1-(5-chloro-1H-imidazo[4,5-b]pyridin-2-yl)piperidin-3-amine], in assay [1], the midpoint of inhibition, the IC50, lay at 19 nM. The concentration giving a half-maximal response (EC50) in assay [2] (setting [4]) was 230 nM.
In turn, `CCNc1c(Cl)cc(Cl)cc1CN[C@H]1CCCN(c2nc3nc(Cl)ccc3[nH]2)C1` [Compound 1940, (S)-1-(5-chloro-1H-imidazo[4,5-b]pyridin-2-yl)-N-(3,5-dichloro-2-(ethylamino)benzyl)piperidin-3-amine] returned an IC50 in assay [1] of 42 nM. Further, the concentration giving a half-maximal response (EC50) in assay [2] (setting [4]) is 359 nM.
The molecule `COc1ccc(Oc2cccc(NCc3nc4ccccc4[nH]3)c2)c(Cl)c1` [Compound 1941, N-(1H-1,3-benzodiazol-2-ylmethyl)-3-(2-chloro-4-methoxyphenoxy)aniline] displayed an IC50 in assay [1] of 273 nM. For the same molecule, the half-maximal effective concentration (EC50) in assay [2] (setting [4]) is 3130 nM.
Take `CC(=O)N(C1CCNc2c(Cl)cc(Cl)cc21)[C@H]1CCCN(c2nc3nc(Cl)ccc3[nH]2)C1` (stereo partly shown) [Compound 1943]: the IC50 in assay [1] is 2130 nM and 3540 nM. For the same molecule, the concentration giving a half-maximal response (EC50) in assay [2] (setting [4]) was 419 nM; in assay [2] (read-out: B) T. brucei EC50) it was 389 nM.
Turning to `O=C(CCc1nc2nc(Cl)ccc2[nH]1)NCc1cc(Cl)cc(Cl)c1` [Compound 1944, 3-{5-chloro-1H-imidazo[4,5-b]pyridin-2-yl}-N-[(3,5-dichlorophenyl)methyl]propanamide], inhibition in assay [1] was half-maximal at 535 nM (IC50). Moreover, the 50% effective concentration (EC50) in assay [2] (setting [4]) was determined as 11700 nM.
The like results for `CC(=O)N1CCC(N(C(C)=O)[C@H]2CCCN(c3nc4nc(Cl)ccc4[nH]3)C2)c2cc(Cl)cc(Cl)c21` (stereo partly shown) [Compound 1945] were, in that order, greater than 10000 nM and 13700 nM.
With `COc1ccc(Oc2cc(NCc3nc4ccccc4[nH]3)ccn2)c(Cl)c1` [Compound 1950, N-(1H-1,3-benzodiazol-2-ylmethyl)-2-(2-chloro-4-methoxyphenoxy)pyridin-4-amine], the IC50 in assay [1] turned out to be 50 nM; in assay [3] it was 797 nM.
`O=C(CSc1nc2ccc(Cl)nc2[nH]1)NCc1cc(Cl)cc(Cl)c1` [Compound 1951, 2-({5-chloro-3H-imidazo[4,5-b]pyridin-2-yl}sulfanyl)-N-[(3,5-dichlorophenyl)methyl]acetamide]: the IC50 in assay [1] is 288 nM. Moreover, the half-maximal effective concentration (EC50) in assay [2] (setting [4]) came out at 664 nM.
In the case of `Clc1cc(Cl)cc(CNc2cccc(-c3nc4ccc(Cl)cc4[nH]3)c2)c1` [Compound 1952, 3-(6-chloro-1H-1,3-benzodiazol-2-yl)-N-[(3,5-dichlorophenyl)methyl]aniline], the IC50 in assay [1] is 2280 nM and 1740 nM. Further, the results for the EC50 in assay [2] (setting [4]) and in assay [2] (read-out: B) T. brucei EC50) were 187 nM and 367 nM, respectively.
On to `O=C(Nc1cccc(-c2nc3ccc(Cl)cc3[nH]2)c1)c1cc(Cl)cc(Cl)c1` [Compound 1953, 3,5-dichloro-N-[3-(6-chloro-1H-1,3-benzodiazol-2-yl)phenyl]benzamide], for which, in assay [1], the IC50 was greater than 10000 nM. For the same molecule, the EC50 in assay [2] (setting [4]) amounted to 903 nM; in assay [2] (read-out: B) T. brucei EC50) it was 812 nM.
Regarding `CCN(Cc1cc(Cl)cc(Cl)c1)[C@H]1CCCN(c2nc3ccc(Cl)nc3[nH]2)C1` [Compound 1955, (S)-1-(5-chloro-1H-imidazo[4,5-b]pyridin-2-yl)-N-(3,5-dichlorobenzyl)-N-ethylpiperidin-3-amine], in assay [1], the IC50 was 286 nM. For the same molecule, in assay [2] (setting [4]), the EC50 came to 1740 nM.
On to `Fc1ccc2nc(NCCCNc3ccc(Cl)cc3Cl)[nH]c2n1` [Compound 1956, N1-(2,4-dichlorophenyl)-N3-(5-fluoro-3H-imidazo[4,5-b]pyridin-2-yl)propane-1,3-diamine], for which the half-maximal inhibitory concentration (IC50) in assay [1] is 325 nM. Further, the EC50 in assay [2] (setting [4]) turned out to be 1550 nM.
Take `CN(CCN(Cc1cc(Cl)cc(Cl)c1)C(=O)CN)c1nc2nc(Cl)ccc2[nH]1` [Compound 1957, 2-amino-N-[2-({5-chloro-1H-imidazo[4,5-b]pyridin-2-yl}(methyl)amino)ethyl]-N-[(3,5-dichlorophenyl)methyl]acetamide]: the concentration for half-maximal inhibition (IC50) in assay [1] came out at 11 nM; in assay [3], 424 nM.
In the same order, the values of `COc1ccc(Oc2ccnc(NCc3nc4ccc(F)nc4[nH]3)c2)c(Cl)c1` [Compound 1960, 4-(2-chloro-4-methoxyphenoxy)-N-({5-fluoro-3H-imidazo[4,5-b]pyridin-2-yl}methyl)pyridin-2-amine] are 21 nM and 12 nM.
The molecule `Clc1cc(Cl)cc(CN[C@H]2CCCN(C3=NCc4ccccc4N3)C2)c1` [Compound 1961] came in with an IC50 in assay [1] of 121 nM. The concentration for a half-maximal effect (EC50) in assay [2] (setting [4]) was 3760 nM.
The like results for `COC(=O)N(CCCNc1nc2ccc(F)nc2[nH]1)Cc1cc(Cl)cc(Cl)c1` [Compound 1964, methyl 3,5-dichlorobenzyl3-(5-fluoro-3H-imidazo[4,5-b]pyridin-2-ylamino)propylcarbamate] were, in that order, 17 nM and 36.6 nM.
With `COC(=O)N(CCCNc1nc2ccc(F)nc2n1C(=O)OC)Cc1cc(Cl)cc(Cl)c1` [Compound 1965, methyl 3,5-dichlorobenzyl3-(3-(methoxycarbonyl)-5-fluoro-3H-imidazo[4,5-b]pyridin-2-ylamino)propylcarbamate], the IC50 in assay [1] was 345 nM and 322 nM. Moreover, the EC50 in assay [2] (setting [4]) came to 96.2 nM.
For the molecule `CCC(=O)NC(CC(=O)NCc1cc(Cl)cc(Cl)c1)c1nc2ccc(Cl)nc2[nH]1` (stereo not shown) [Compound 1968, 3-{5-chloro-3H-imidazo[4,5-b]pyridin-2-yl}-N-[(3,5-dichlorophenyl)methyl]-3-propanamidopropanamide], inhibition in assay [1] was half-maximal at 1860 nM (IC50). Moreover, in assay [2] (setting [4]), the EC50 was greater than 20000 nM.
Regarding `NC(CC(=O)NCc1cc(Cl)cc(Cl)c1)c1nc2ccc(Cl)nc2[nH]1` (stereo not shown) [Compound 1969, 3-amino-3-(5-chloro-3H-imidazo[4,5-b]pyridin-2-yl)-N-(3,5-dichlorobenzyl)propanamide], in assay [1], the IC50 came out at 782 nM. The EC50 in assay [2] (setting [4]) was found to be 7960 nM.
On to `CN(CCN(Cc1cc(Cl)cc(Cl)c1)C(N)=O)c1nc2ccc(Cl)nc2[nH]1` [Compound 1972, 1-(3,5-dichlorobenzyl)-1-(2-(5-chloro-N-methyl-1H-imidazo[4,5-b]pyridin-2-ylamino)ethyl)urea], for which the IC50 in assay [1] was determined as 27 nM; in assay [3], 140 nM.
For the molecule `O=C(CNc1cc(Cl)cc(Cl)c1)NCc1nc2ccc(Cl)nc2[nH]1` [Compound 1990, N-({5-chloro-3H-imidazo[4,5-b]pyridin-2-yl}methyl)-2-[(3,5-dichlorophenyl)amino]acetamide], inhibition in assay [1] was half-maximal at 17 nM (IC50). For the same molecule, the EC50 in assay [2] (setting [4]) came to 2040 nM.
In the same order, the values of `O=C(NCc1cc(Cl)cc(Cl)c1)NCc1nc2ccc(Cl)nc2[nH]1` [Compound 1991, 3-({5-chloro-3H-imidazo[4,5-b]pyridin-2-yl}methyl)-1-[(3,5-dichlorophenyl)methyl]urea] are 18 nM and 2070 nM.
In assay [1], `Clc1cc(Cl)cc(NCCNCc2nc3ccc(Cl)nc3[nH]2)c1` [Compound 1994, ({5-chloro-3H-imidazo[4,5-b]pyridin-2-yl}methyl)({2-[(3,5-dichlorophenyl)amino]ethyl})amine] returned an IC50 of 59 nM. For the same molecule, the EC50 in assay [2] (setting [4]) worked out at 1410 nM.
